Reference: PubChem BioAssay (NCI)
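1) Cells in 96-well plates. 2) Compound, 48 h, 5 concentrations. 3) Linear interpolation between surrounding doses. 4) Unreached endpoint = highest concentration. TGI: concentration producing complete growth inhibition.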

Experiments:
Assay in all cases: DTP human tumour cell line panel, 48 h
MOLT-4 leukemia = system: MOLT-4 leukemia
U251 CNS = system: U251 CNS
HL-60(TB) leukemia = system: HL-60(TB) leukemia
OVCAR-5 ovarian = system: OVCAR-5 ovarian
IGROV1 ovarian = system: IGROV1 ovarian
SK-OV-3 ovarian = system: SK-OV-3 ovarian
RXF 393 renal = system: RXF 393 renal
DMS 273 small cell lung = system: DMS 273 small cell lung
SF-268 CNS = system: SF-268 CNS
MALME-3M melanoma = system: MALME-3M melanoma
OVCAR-4 ovarian = system: OVCAR-4 ovarian
HCC-2998 colon = system: HCC-2998 colon
HCT-116 colon = system: HCT-116 colon
M14 melanoma = system: M14 melanoma
UACC-257 melanoma = system: UACC-257 melanoma
LXFL 529 NSCLC = system: LXFL 529 NSCLC
SN12C renal = system: SN12C renal
CCRF-CEM leukemia = system: CCRF-CEM leukemia
ACHN renal = system: ACHN renal
SK-MEL-5 melanoma = system: SK-MEL-5 melanoma
KM12 colon = system: KM12 colon
SK-MEL-28 melanoma = system: SK-MEL-28 melanoma
SF-295 CNS = system: SF-295 CNS
NCI-H226 lung = system: NCI-H226 lung
RPMI-8226 leukemia = system: RPMI-8226 leukemia
TK-10 renal = system: TK-10 renal
DMS 114 small cell lung = system: DMS 114 small cell lung
LOX IMVI melanoma = system: LOX IMVI melanoma
HOP-62 NSCLC = system: HOP-62 NSCLC
K-562 leukemia = system: K-562 leukemia
SK-MEL-2 melanoma = system: SK-MEL-2 melanoma
SNB-78 CNS = system: SNB-78 CNS
A549 NSCLC = system: A549 NSCLC
A498 renal = system: A498 renal
KM20L2 colon = system: KM20L2 colon
HOP-18 NSCLC = system: HOP-18 NSCLC
OVCAR-3 ovarian = system: OVCAR-3 ovarian
HCT-15 colon = system: HCT-15 colon
OVCAR-8 ovarian = system: OVCAR-8 ovarian
SF-539 CNS = system: SF-539 CNS
SNB-75 CNS = system: SNB-75 CNS
HT29 colon = system: HT29 colon
NCI-H522 lung = system: NCI-H522 lung
786-0 renal = system: 786-0 renal
DLD-1 colon = system: DLD-1 colon
COLO 205 colon = system: COLO 205 colon
NCI-H460 lung = system: NCI-H460 lung
NCI-H23 lung = system: NCI-H23 lung
M19-MEL melanoma = system: M19-MEL melanoma
UACC-62 melanoma = system: UACC-62 melanoma
UO-31 renal = system: UO-31 renal
SR leukemia = system: SR leukemia
SW-620 colon = system: SW-620 colon
HOP-92 NSCLC = system: HOP-92 NSCLC
CAKI-1 renal = system: CAKI-1 renal

Measured: TGI

O=C(CSc1nnc(Cc2ccccc2)o1)Nc1ccccc1
not listed: SR leukemia | SW-620 colon | HOP-92 NSCLC | CAKI-1 renal
> 100 µM: all other assays above

COc1cccc(NC(=O)CSc2nnc(-c3ccc(NC(C)=O)cc3)o2)c1
not listed: HCC-2998 colon | A498 renal | SF-539 CNS
> 100 µM: all other assays above
